Data as given in PubChem BioAssay AID1259407 (Chemical Carcinogenesis Research Information System (CCRIS), 2018).
Active and inactive are the calls of the source. How the calls were made is not given here.

Tested on: CCRIS mutagenicity, Ames/micronucleus/aberration tests
Assay: CCRIS mutagenicity studies

Measured: mutagenic call

COc1cc([N+](=O)[O-])ccc1N=NC(C(C)=O)C(=O)Nc1ccccc1OC (stereo unspecified)
inactive: Test System: AMES SALMONELLA TYPHIMURIUM, Strain/Indicator: TA97, Metabolic Activation: HAMSTER, LIVER, S-9, AROCLOR 1254 (10%), Method: PREINCUBATION inactive; negative | Test System: AMES SALMONELLA TYPHIMURIUM, Strain/Indicator: TA97, Metabolic Activation: HAMSTER, LIVER, S-9, AROCLOR 1254 (30%), Method: PREINCUBATION inactive; negative | Test System: AMES SALMONELLA TYPHIMURIUM, Strain/Indicator: TA97, Metabolic Activation: NONE, Method: PREINCUBATION inactive; negative | Test System: AMES SALMONELLA TYPHIMURIUM, Strain/Indicator: TA97, Metabolic Activation: RAT, LIVER, S-9, AROCLOR 1254 (10%), Method: PREINCUBATION inactive; negative | Test System: AMES SALMONELLA TYPHIMURIUM, Strain/Indicator: TA97, Metabolic Activation: RAT, LIVER, S-9, AROCLOR 1254 (30%), Method: PREINCUBATION inactive; negative | Test System: AMES SALMONELLA TYPHIMURIUM, Strain/Indicator: TA98, Metabolic Activation: HAMSTER, LIVER, S-9, AROCLOR 1254 (10%), Method: PREINCUBATION inactive; negative | Test System: AMES SALMONELLA TYPHIMURIUM, Strain/Indicator: TA98, Metabolic Activation: HAMSTER, LIVER, S-9, AROCLOR 1254 (30%), Method: PREINCUBATION inactive; negative | Test System: AMES SALMONELLA TYPHIMURIUM, Strain/Indicator: TA98, Metabolic Activation: HAMSTER, LIVER, S-9, AROCLOR 1254, Method: STANDARD PLATE inactive; negative | Test System: AMES SALMONELLA TYPHIMURIUM, Strain/Indicator: TA98, Metabolic Activation: NONE, Method: PREINCUBATION inactive; negative | Test System: AMES SALMONELLA TYPHIMURIUM, Strain/Indicator: TA98, Metabolic Activation: NONE, Method: STANDARD PLATE inactive; negative | Test System: AMES SALMONELLA TYPHIMURIUM, Strain/Indicator: TA98, Metabolic Activation: RAT, LIVER, S-9, AROCLOR 1254 (10%), Method: PREINCUBATION inactive; negative | Test System: AMES SALMONELLA TYPHIMURIUM, Strain/Indicator: TA98, Metabolic Activation: RAT, LIVER, S-9, AROCLOR 1254 (30%), Method: PREINCUBATION inactive; negative | Test System: AMES SALMONELLA TYPHIMURIUM, Strain/Indicator: TA98, Metabolic Activation: RAT, LIVER, S-9, AROCLOR 1254, Method: STANDARD PLATE inactive; negative | Test System: AMES SALMONELLA TYPHIMURIUM, Strain/Indicator: TA100, Metabolic Activation: HAMSTER, LIVER, S-9, AROCLOR 1254 (10%), Method: PREINCUBATION inactive; negative | Test System: AMES SALMONELLA TYPHIMURIUM, Strain/Indicator: TA100, Metabolic Activation: HAMSTER, LIVER, S-9, AROCLOR 1254 (30%), Method: PREINCUBATION inactive; negative | Test System: AMES SALMONELLA TYPHIMURIUM, Strain/Indicator: TA100, Metabolic Activation: HAMSTER, LIVER, S-9, AROCLOR 1254, Method: STANDARD PLATE inactive; negative | Test System: AMES SALMONELLA TYPHIMURIUM, Strain/Indicator: TA100, Metabolic Activation: NONE, Method: PREINCUBATION inactive; negative | Test System: AMES SALMONELLA TYPHIMURIUM, Strain/Indicator: TA100, Metabolic Activation: NONE, Method: STANDARD PLATE inactive; negative | Test System: AMES SALMONELLA TYPHIMURIUM, Strain/Indicator: TA100, Metabolic Activation: RAT, LIVER, S-9, AROCLOR 1254 (10%), Method: PREINCUBATION inactive; negative | Test System: AMES SALMONELLA TYPHIMURIUM, Strain/Indicator: TA100, Metabolic Activation: RAT, LIVER, S-9, AROCLOR 1254 (30%), Method: PREINCUBATION inactive; negative | Test System: AMES SALMONELLA TYPHIMURIUM, Strain/Indicator: TA100, Metabolic Activation: RAT, LIVER, S-9, AROCLOR 1254, Method: STANDARD PLATE inactive; negative | Test System: AMES SALMONELLA TYPHIMURIUM, Strain/Indicator: TA1535, Metabolic Activation: HAMSTER, LIVER, S-9, AROCLOR 1254 (10%), Method: PREINCUBATION inactive; negative | Test System: AMES SALMONELLA TYPHIMURIUM, Strain/Indicator: TA1535, Metabolic Activation: HAMSTER, LIVER, S-9, AROCLOR 1254 (30%), Method: PREINCUBATION inactive; negative | Test System: AMES SALMONELLA TYPHIMURIUM, Strain/Indicator: TA1535, Metabolic Activation: HAMSTER, LIVER, S-9, AROCLOR 1254, Method: STANDARD PLATE inactive; negative | Test System: AMES SALMONELLA TYPHIMURIUM, Strain/Indicator: TA1535, Metabolic Activation: NONE, Method: STANDARD PLATE inactive; negative | Test System: AMES SALMONELLA TYPHIMURIUM, Strain/Indicator: TA1535, Metabolic Activation: RAT, LIVER, S-9, AROCLOR 1254 (10%), Method: PREINCUBATION inactive; negative | Test System: AMES SALMONELLA TYPHIMURIUM, Strain/Indicator: TA1535, Metabolic Activation: RAT, LIVER, S-9, AROCLOR 1254 (30%), Method: PREINCUBATION inactive; negative | Test System: AMES SALMONELLA TYPHIMURIUM, Strain/Indicator: TA1535, Metabolic Activation: RAT, LIVER, S-9, AROCLOR 1254, Method: STANDARD PLATE inactive; negative | Test System: AMES SALMONELLA TYPHIMURIUM, Strain/Indicator: TA1537, Metabolic Activation: HAMSTER, LIVER, S-9, AROCLOR 1254, Method: STANDARD PLATE inactive; negative | Test System: AMES SALMONELLA TYPHIMURIUM, Strain/Indicator: TA1537, Metabolic Activation: NONE, Method: STANDARD PLATE inactive; negative | Test System: AMES SALMONELLA TYPHIMURIUM, Strain/Indicator: TA1537, Metabolic Activation: RAT, LIVER, S-9, AROCLOR 1254, Method: STANDARD PLATE inactive; negative | Test System: AMES SALMONELLA TYPHIMURIUM, Strain/Indicator: TA1538, Metabolic Activation: HAMSTER, LIVER, S-9, AROCLOR 1254, Method: STANDARD PLATE inactive; negative | Test System: AMES SALMONELLA TYPHIMURIUM, Strain/Indicator: TA1538, Metabolic Activation: NONE, Method: STANDARD PLATE inactive; negative | Test System: AMES SALMONELLA TYPHIMURIUM, Strain/Indicator: TA1538, Metabolic Activation: RAT, LIVER, S-9, AROCLOR 1254, Method: STANDARD PLATE inactive; negative | Test System: MOUSE LYMPHOMA, Strain/Indicator: L5178Y (TK+/TK-), Metabolic Activation: NONE, Method: SUSPENSION/PLATE inactive; negative. reevaluation of results: negative | Test System: MOUSE LYMPHOMA, Strain/Indicator: L5178Y (TK+/TK-), Metabolic Activation: RAT, LIVER, S-9, AROCLOR 1254, Method: SUSPENSION/PLATE inactive; negative. reevaluation of results: negative
